Laboratory results: ChEMBL document CHEMBL3351422, “Discovery of N-substituted 7-azaindoline derivatives as potent, orally available M1 and M4 muscarinic acetylcholine receptors selective agonists” (Bioorg Med Chem Lett, 2014)

Legend:
[1] = target: Voltage-gated inwardly rectifying potassium channel KCNH2 (Homo sapiens, UniProt Q12809); test: Inhibition of human ERG channel
[2] = target: T1, Muscarinic acetylcholine receptor M2 (Homo sapiens) (UniProt P08172); test: Agonist activity at muscarinic M2 receptor (unknown origin) at 1 uM by calcium mobilization assay; type: functional
T1 sequence (whole entry): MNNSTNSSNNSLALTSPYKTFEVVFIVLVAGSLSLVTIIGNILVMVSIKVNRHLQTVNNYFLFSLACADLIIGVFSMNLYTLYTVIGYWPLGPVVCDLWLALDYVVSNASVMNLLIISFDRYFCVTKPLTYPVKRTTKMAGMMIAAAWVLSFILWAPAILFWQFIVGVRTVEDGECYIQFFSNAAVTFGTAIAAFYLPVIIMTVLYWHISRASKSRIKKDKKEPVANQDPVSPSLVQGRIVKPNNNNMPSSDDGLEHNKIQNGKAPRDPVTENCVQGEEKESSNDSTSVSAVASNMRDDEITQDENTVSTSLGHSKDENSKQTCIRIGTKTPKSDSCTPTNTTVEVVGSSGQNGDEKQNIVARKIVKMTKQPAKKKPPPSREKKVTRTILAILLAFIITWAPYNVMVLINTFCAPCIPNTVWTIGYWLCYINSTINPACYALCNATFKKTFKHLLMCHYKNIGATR

[3] = target: Muscarinic acetylcholine receptor M3 (Homo sapiens) (UniProt P20309); test: Agonist activity at muscarinic M3 receptor (unknown origin) at 1 uM by calcium mobilization assay; type: functional
[4] = target: T2, Muscarinic acetylcholine receptor M1 (Homo sapiens) (UniProt P11229); test: Agonist activity at muscarinic M1 receptor (unknown origin) at 1 uM by calcium mobilization assay; type: functional
T2 sequence (whole entry): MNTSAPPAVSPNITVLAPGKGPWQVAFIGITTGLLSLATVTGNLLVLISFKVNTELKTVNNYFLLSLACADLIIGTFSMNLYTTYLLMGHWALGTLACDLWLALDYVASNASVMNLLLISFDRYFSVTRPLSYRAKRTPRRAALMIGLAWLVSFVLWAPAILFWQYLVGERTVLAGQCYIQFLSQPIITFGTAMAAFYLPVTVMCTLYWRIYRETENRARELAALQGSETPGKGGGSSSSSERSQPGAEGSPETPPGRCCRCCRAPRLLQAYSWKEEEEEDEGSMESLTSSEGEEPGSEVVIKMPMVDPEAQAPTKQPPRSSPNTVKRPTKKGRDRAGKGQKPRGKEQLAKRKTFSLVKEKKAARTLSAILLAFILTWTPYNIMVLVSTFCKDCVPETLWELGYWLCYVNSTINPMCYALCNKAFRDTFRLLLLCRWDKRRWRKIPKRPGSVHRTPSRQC

[5] = target: T3, Muscarinic acetylcholine receptor M4 (Homo sapiens) (UniProt P08173); test: Agonist activity at muscarinic M4 receptor (unknown origin) at 1 uM by calcium mobilization assay; type: functional
T3 sequence (whole entry): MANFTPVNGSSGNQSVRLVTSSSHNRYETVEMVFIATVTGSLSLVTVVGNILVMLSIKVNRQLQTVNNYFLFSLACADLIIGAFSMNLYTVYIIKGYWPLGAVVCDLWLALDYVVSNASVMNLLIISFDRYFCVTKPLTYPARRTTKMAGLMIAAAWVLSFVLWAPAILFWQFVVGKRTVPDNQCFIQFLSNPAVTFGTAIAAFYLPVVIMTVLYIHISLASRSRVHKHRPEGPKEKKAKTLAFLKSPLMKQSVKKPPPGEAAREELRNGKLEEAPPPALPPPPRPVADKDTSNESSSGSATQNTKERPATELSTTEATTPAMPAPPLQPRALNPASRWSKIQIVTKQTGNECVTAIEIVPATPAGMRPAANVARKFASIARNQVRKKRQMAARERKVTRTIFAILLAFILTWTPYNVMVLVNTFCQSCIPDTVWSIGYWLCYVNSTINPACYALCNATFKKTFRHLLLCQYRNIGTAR

[6] = target: T4, Muscarinic acetylcholine receptor M5 (Homo sapiens) (UniProt P08912); test: Agonist activity at muscarinic M5 receptor (unknown origin) at 10 uM by calcium mobilization assay; type: functional
T4 sequence (whole entry): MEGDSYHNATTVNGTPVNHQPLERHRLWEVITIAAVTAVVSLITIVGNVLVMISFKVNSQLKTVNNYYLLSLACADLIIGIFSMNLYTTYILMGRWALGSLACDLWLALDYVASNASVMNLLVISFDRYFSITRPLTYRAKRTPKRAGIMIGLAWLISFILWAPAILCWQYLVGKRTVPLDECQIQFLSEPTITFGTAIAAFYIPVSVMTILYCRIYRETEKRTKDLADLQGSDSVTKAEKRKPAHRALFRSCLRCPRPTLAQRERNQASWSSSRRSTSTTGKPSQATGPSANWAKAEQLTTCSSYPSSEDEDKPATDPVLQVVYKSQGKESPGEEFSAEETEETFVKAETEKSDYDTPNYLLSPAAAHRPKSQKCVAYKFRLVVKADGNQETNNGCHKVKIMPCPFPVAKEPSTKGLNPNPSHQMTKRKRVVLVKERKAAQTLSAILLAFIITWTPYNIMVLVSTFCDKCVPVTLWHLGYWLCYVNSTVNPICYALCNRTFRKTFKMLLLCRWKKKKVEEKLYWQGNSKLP

[7] = Oral bioavailability in rat at 2.5 mg/kg; type: ADME, organism-based; conditions: in vivo
[8] = Clearance in rat at 0.25 mg/kg, iv and 2.5 mg/kg, po; type: ADME, organism-based; conditions: in vivo
[9] = target: T3, Muscarinic acetylcholine receptor M4 (Homo sapiens); test: Agonist activity at muscarinic M4 receptor (unknown origin) at 0.3 uM by calcium mobilization assay; type: functional
[10] = target: T1, Muscarinic acetylcholine receptor M2 (Homo sapiens); test: Agonist activity at muscarinic M2 receptor (unknown origin) at 0.3 uM by calcium mobilization assay; type: functional
[11] = target: Muscarinic acetylcholine receptor M3 (Homo sapiens) (UniProt P20309); test: Agonist activity at muscarinic M3 receptor (unknown origin) at 0.3 uM by calcium mobilization assay; type: functional
[12] = target: T2, Muscarinic acetylcholine receptor M1 (Homo sapiens); test: Agonist activity at muscarinic M1 receptor (unknown origin) at 0.3 uM by calcium mobilization assay; type: functional
[13] = Lipophilicity, log P of the compound; type: physicochemical; conditions: octanol/water

Chain of Voltage-gated inwardly rectifying potassium channel KCNH2 (Q12809 whole entry): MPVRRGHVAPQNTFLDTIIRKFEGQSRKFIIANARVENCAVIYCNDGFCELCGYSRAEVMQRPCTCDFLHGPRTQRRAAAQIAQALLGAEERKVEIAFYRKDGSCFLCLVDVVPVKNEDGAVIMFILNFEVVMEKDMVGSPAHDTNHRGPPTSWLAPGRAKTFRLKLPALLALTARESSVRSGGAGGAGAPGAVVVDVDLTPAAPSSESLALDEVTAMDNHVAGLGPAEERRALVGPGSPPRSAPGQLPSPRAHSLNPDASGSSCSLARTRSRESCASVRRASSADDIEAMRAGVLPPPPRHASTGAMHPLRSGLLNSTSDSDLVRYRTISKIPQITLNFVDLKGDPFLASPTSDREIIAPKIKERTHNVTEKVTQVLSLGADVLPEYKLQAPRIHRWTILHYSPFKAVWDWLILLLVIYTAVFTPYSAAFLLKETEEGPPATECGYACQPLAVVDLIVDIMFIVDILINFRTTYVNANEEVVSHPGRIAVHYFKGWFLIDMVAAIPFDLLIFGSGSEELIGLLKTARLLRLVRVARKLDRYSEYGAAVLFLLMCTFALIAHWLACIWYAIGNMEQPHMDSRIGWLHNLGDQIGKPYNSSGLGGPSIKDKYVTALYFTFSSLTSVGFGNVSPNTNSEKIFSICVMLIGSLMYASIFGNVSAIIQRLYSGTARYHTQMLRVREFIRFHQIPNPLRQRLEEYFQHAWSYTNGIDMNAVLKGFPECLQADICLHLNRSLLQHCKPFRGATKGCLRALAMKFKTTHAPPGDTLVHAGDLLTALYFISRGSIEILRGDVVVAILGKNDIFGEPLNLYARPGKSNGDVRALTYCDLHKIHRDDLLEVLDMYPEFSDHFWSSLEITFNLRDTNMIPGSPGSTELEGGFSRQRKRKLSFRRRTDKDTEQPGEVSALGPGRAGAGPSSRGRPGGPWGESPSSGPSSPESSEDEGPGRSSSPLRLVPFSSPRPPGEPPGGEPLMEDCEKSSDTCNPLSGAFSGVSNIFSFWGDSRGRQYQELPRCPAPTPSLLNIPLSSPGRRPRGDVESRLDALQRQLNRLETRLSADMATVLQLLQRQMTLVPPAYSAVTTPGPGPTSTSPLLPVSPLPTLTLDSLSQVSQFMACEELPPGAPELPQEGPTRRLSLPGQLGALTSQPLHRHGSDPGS
Chain of Muscarinic acetylcholine receptor M3 (Homo sapiens) (P20309 whole entry, looked up): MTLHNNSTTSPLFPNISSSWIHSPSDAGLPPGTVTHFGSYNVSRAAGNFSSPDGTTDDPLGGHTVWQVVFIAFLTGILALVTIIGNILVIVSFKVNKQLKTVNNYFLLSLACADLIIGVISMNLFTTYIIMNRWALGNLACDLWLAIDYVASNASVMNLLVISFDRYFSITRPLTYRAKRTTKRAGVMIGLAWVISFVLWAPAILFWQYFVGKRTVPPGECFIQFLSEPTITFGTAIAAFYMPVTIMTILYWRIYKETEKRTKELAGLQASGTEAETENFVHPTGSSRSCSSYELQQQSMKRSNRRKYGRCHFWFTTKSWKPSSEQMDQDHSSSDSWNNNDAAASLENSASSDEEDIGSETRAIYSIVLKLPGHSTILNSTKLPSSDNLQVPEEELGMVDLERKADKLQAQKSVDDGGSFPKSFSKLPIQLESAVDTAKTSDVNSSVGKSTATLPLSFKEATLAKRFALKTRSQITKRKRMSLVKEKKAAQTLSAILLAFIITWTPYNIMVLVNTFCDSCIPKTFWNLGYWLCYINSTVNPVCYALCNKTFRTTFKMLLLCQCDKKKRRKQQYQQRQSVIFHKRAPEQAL

Row | Structure (SMILES) | Activity [2] [%] | Activity [3] [%] | Activity [4] [%] | Activity [5] [%] | Activity [6] [%] | Activity [9] [%] | other results
1 | CCNC(=O)N1CC2(CCN(CC3CCN(C(=O)OCC)CC3)CC2)c2cccnc21 | 13 | 5 | 55 | 77 | 11 |  | IC50 [1]: 230 nM
2 | CCOC(=O)N1CCC(CN2CCC3(CC2)CN(CC)c2ncccc23)CC1 | 14 | 6 | 34 | 58 | 17 |  | 
3 | CCOC(=O)N1CCC(CN2CCC3(CC2)CN(S(C)(=O)=O)c2ncccc23)CC1 |  |  |  |  | 3 | 88 | Activity [10]: 12%; Activity [11]: 7%; Activity [12]: 20%
4 | CCOC(=O)N1CCC(CN2CCC3(CC2)OC(=O)N(C)c2ncccc23)CC1 |  |  |  |  |  |  | clearance [8]: 71.6 mL/min/kg
5 | CCOC(=O)N1CCC(CN2CCC3(CC2)CN(C(=O)N(CC)CC)c2ncccc23)CC1 | 23 | 4 | 52 | 132 | 9 |  | IC50 [1]: 2540 nM
6 | CCOC(=O)N1CCC(CN2CCC3(CC2)OC(=O)Nc2ncccc23)CC1 |  |  |  |  |  |  | clearance [8]: 17.5 mL/min/kg

Further lines, with some results ahead:

Row | Activity [2] [%] | Activity [3] [%] | Activity [4] [%] | Activity [5] [%] | Activity [6] [%] | Activity [9] [%] | Structure (SMILES) | other results
7 | 20 | 2 | 91 | 134 | 3 |  | CCOC(=O)N1CCC(CN2CCC3(CC2)CC(=O)N(CC)c2ncccc23)CC1 | bioavailability [7]: 2.6%; clearance [8]: 49.3 mL/min/kg
8 |  |  |  |  |  | 29 | CCOC(=O)N1CCC(CN2CCC3(CC2)CN(C(=O)N2CCC2)c2ncccc23)CC1 | 
9 |  |  |  |  | 8 | 103 | CCOC(=O)N1CCC(CN2CCC3(CC2)CN(C(N)=O)c2ncccc23)CC1 | Activity [10]: 17%; Activity [11]: 11%; logP [13]: 2; Activity [12]: 99%
10 |  |  |  |  | 17 | 98 | CCOC(=O)N1CCC(CN2CCC3(CC2)CN(C(=O)NC)c2ncccc23)CC1 | Activity [10]: 7%; IC50 [1]: 300 nM; Activity [11]: 8%; logP [13]: 2.5; Activity [12]: 74%
11 |  |  |  | 7 |  |  | CCOC(=O)N1CCC(CN2CCC3(CC2)CN(C(=O)OC)c2ncccc23)CC1 | 
12 |  |  |  |  |  | 10 | CCOC(=O)N1CCC(CN2CCC3(CC2)CN(C(=O)N2CCCC2)c2ncccc23)CC1 | 
